Among the test systems are UO-31 renal; K-562 leukemia; MALME-3M melanoma; NCI-H522 lung; NCI/ADR-RES ovarian; HL-60(TB) leukemia; 786-0 renal; CCRF-CEM leukemia; SNB-19 CNS; MCF7 breast.
Test in all cases: growth of human tumour cells (NCI), 48 h

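Test compounds were applied to cells in 96-well plates for 48 hours at 5 doses. GI50 is the concentration that inhibits growth by half. TGI: concentration producing complete growth inhibition.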

As to `Cc1[nH]c(C(=O)Nc2cccc(OC3CCNCC3)c2)c(Cl)c1Cl`, the GI50 was 1.52 µM in the assay with UO-31 renal; 1.76 µM in the assay with K-562 leukemia; 1.6 µM in the assay on MALME-3M melanoma; 1.86 µM in the assay with NCI-H522 lung; 1.84 µM with NCI/ADR-RES ovarian; 1.91 µM in the assay on HL-60(TB) leukemia. Further, the GI50 was 1.83 µM with 786-0 renal, 1.92 µM in the assay with CCRF-CEM leukemia, 2.11 µM in the assay with SNB-19 CNS and 1.5 µM in the assay on MCF7 breast. Also, the TGI in the assay on UO-31 renal was 2.94 µM; in the assay on K-562 leukemia, 4.53 µM; with MALME-3M melanoma, 3.22 µM; in the assay with NCI-H522 lung, 4.02 µM; in the assay with NCI/ADR-RES ovarian, 3.47 µM; with HL-60(TB) leukemia, 4.08 µM. The TGI with 786-0 renal was 3.44 µM; with CCRF-CEM leukemia, 4.26 µM; with SNB-19 CNS, 5.18 µM; with MCF7 breast, 3.05 µM.
Turning to `COc1ccc(-c2nc3sccn3c2-c2ccnc(NCCNS(=O)(=O)c3ccc(C(F)(F)F)cc3)n2)cc1`, the GI50 in the assay on UO-31 renal was 1.09 µM; in the assay on K-562 leukemia it was 0.411 µM; with MALME-3M melanoma it was 2.35 µM; in the assay with NCI-H522 lung, 2.81 µM; in the assay with NCI/ADR-RES ovarian, 3.12 µM; in the assay on HL-60(TB) leukemia, 0.494 µM. The GI50 is 0.641 µM with 786-0 renal, 0.37 µM in the assay on CCRF-CEM leukemia, 3.77 µM in the assay with SNB-19 CNS and 3.15 µM in the assay on MCF7 breast. The TGI is > 100 µM with UO-31 renal; > 100 µM in the assay with K-562 leukemia; 5.22 µM in the assay on MALME-3M melanoma; 17 µM with NCI-H522 lung; > 100 µM with NCI/ADR-RES ovarian; > 100 µM in the assay with HL-60(TB) leukemia. The TGI with 786-0 renal is 11.3 µM; in the assay with CCRF-CEM leukemia, > 100 µM; in the assay on SNB-19 CNS, > 100 µM; in the assay with MCF7 breast, > 100 µM.
As to `COc1cc(-c2oc3c(OC)c(O)c(OC)c(O)c3c(=O)c2OC)cc(OC)c1OC`, the TGI is > 100 µM in the assay on UO-31 renal; > 100 µM in the assay on K-562 leukemia; > 100 µM in the assay with MALME-3M melanoma; 81.8 µM in the assay with NCI-H522 lung; > 100 µM in the assay on NCI/ADR-RES ovarian; > 100 µM with HL-60(TB) leukemia. Besides, the TGI in the assay on 786-0 renal, in the assay on CCRF-CEM leukemia, in the assay on SNB-19 CNS and in the assay on MCF7 breast was > 100 µM each time.
With `CC(C)[C@@]12C[C@@H](OC(=O)COC(=O)c3ccccc3)[C@@](C)(O1)[C@@H]1CC[C@@H](C)[C@H]1[C@@H]2OC(=O)/C=C/c1ccccc1`, the GI50 with UO-31 renal was 0.115 µM; in the assay with K-562 leukemia, 62.7 µM; with MALME-3M melanoma, > 100 µM; in the assay on NCI-H522 lung, > 100 µM; in the assay with NCI/ADR-RES ovarian, 0.47 µM; in the assay on HL-60(TB) leukemia it was > 75.1 µM. In addition, the GI50 with 786-0 renal was 3.95 µM; in the assay with CCRF-CEM leukemia, > 100 µM; with SNB-19 CNS it was > 100 µM; with MCF7 breast, > 65 µM. Further, the TGI in the assay with UO-31 renal is 1.66 µM; in the assay with K-562 leukemia it was > 100 µM; in the assay on MALME-3M melanoma, > 100 µM; in the assay with NCI-H522 lung, > 100 µM; in the assay on NCI/ADR-RES ovarian it was > 100 µM; in the assay with HL-60(TB) leukemia, > 100 µM. The TGI in the assay on 786-0 renal, in the assay with CCRF-CEM leukemia, with SNB-19 CNS and in the assay on MCF7 breast was > 100 µM each time.
For `c1cc[n+](Cc2c3ccccc3cc3c2ccc2ccccc23)cc1`, the GI50 was 27.5 µM with UO-31 renal; 3.21 µM with K-562 leukemia; 1.56 µM in the assay with MALME-3M melanoma; 1.68 µM in the assay on NCI-H522 lung; > 100 µM in the assay with NCI/ADR-RES ovarian; 3.15 µM in the assay on HL-60(TB) leukemia. The GI50 in the assay on 786-0 renal was 4.83 µM; in the assay on CCRF-CEM leukemia, 4.73 µM; in the assay with SNB-19 CNS, 1.18 µM; in the assay with MCF7 breast, 3.25 µM. Besides, the TGI in the assay on UO-31 renal was > 100 µM; with K-562 leukemia it was 17.8 µM; in the assay with MALME-3M melanoma it was 3.91 µM; in the assay with NCI-H522 lung, 5.31 µM; with NCI/ADR-RES ovarian, > 100 µM; in the assay with HL-60(TB) leukemia, 12.5 µM. Further, the TGI in the assay on 786-0 renal is 26.1 µM; with CCRF-CEM leukemia it was 24 µM; in the assay on SNB-19 CNS, 7.85 µM; in the assay on MCF7 breast it was 13.2 µM.
Consider `Cn1c2c(c3ccccc31)CCN1C[C@@H]3CCCC[C@H]3C[C@@H]21`, for which the GI50 in the assay on UO-31 renal was 2.2 µM; with K-562 leukemia it was 2.07 µM; in the assay on MALME-3M melanoma it was 4.22 µM; in the assay with NCI-H522 lung it was 1.74 µM; in the assay with NCI/ADR-RES ovarian, 0.928 µM; in the assay with HL-60(TB) leukemia, 2.27 µM. Further, the GI50 in the assay on 786-0 renal was 3.58 µM; in the assay with CCRF-CEM leukemia, 4.77 µM; in the assay with SNB-19 CNS, 5.15 µM; with MCF7 breast, 3.17 µM. Also, the TGI in the assay with UO-31 renal was 13.7 µM; in the assay on K-562 leukemia, > 36 µM; in the assay with MALME-3M melanoma it was > 55.8 µM; in the assay with NCI-H522 lung, 4.44 µM; in the assay with NCI/ADR-RES ovarian, 9.7 µM; in the assay on HL-60(TB) leukemia, > 28.4 µM. Also, the TGI with 786-0 renal is 17.5 µM; in the assay with CCRF-CEM leukemia, > 100 µM; with SNB-19 CNS, > 100 µM; in the assay with MCF7 breast, > 72.8 µM.
Regarding `COc1ccc(-c2cc(=O)c3c(OC)c4ccoc4c(/C=C/C=O)c3o2)cc1`, the GI50 in the assay on UO-31 renal is 3.17 µM; in the assay on K-562 leukemia, 2.8 µM; in the assay on MALME-3M melanoma, 3.79 µM; in the assay on NCI-H522 lung, 34.6 µM; in the assay on NCI/ADR-RES ovarian, 2.84 µM; with HL-60(TB) leukemia, 2.72 µM. Also, the GI50 was 16.8 µM with 786-0 renal, 1.09 µM in the assay on CCRF-CEM leukemia, 3.16 µM with SNB-19 CNS and 1.63 µM in the assay on MCF7 breast. Moreover, the TGI with UO-31 renal was 19.5 µM; with K-562 leukemia it was > 100 µM; in the assay on MALME-3M melanoma, 8.3 µM; in the assay with NCI-H522 lung it was > 100 µM; with NCI/ADR-RES ovarian, 48 µM; in the assay with HL-60(TB) leukemia it was 8.33 µM. Further, the TGI was 72.5 µM in the assay with 786-0 renal, > 100 µM in the assay with CCRF-CEM leukemia, 46.6 µM in the assay on SNB-19 CNS and > 100 µM with MCF7 breast.
As for `C[n+]1cccc(NC(=O)c2ccc3ccc4ccc(C(=O)Nc5ccc[n+](C)c5)nc4c3n2)c1`, the GI50 with UO-31 renal is > 20.2 µM; in the assay on K-562 leukemia, 2.4 µM; with MALME-3M melanoma, > 89.1 µM; in the assay with NCI-H522 lung, 0.645 µM; in the assay on NCI/ADR-RES ovarian, > 100 µM; with HL-60(TB) leukemia it was 3.54 µM. Besides, the GI50 is 8.99 µM with 786-0 renal, 5.56 µM in the assay on CCRF-CEM leukemia, 1.61 µM in the assay with SNB-19 CNS and 2.35 µM in the assay with MCF7 breast. Moreover, the TGI is > 100 µM in the assay with UO-31 renal; > 100 µM in the assay on K-562 leukemia; > 100 µM in the assay on MALME-3M melanoma; 23 µM in the assay with NCI-H522 lung; > 100 µM with NCI/ADR-RES ovarian; > 100 µM with HL-60(TB) leukemia. In addition, the TGI was > 100 µM with 786-0 renal, > 100 µM with CCRF-CEM leukemia, > 27 µM with SNB-19 CNS and > 100 µM in the assay on MCF7 breast.

For the origin of these results see PubChem BioAssay (NCI).
